Marks after values point to notes of the source that are not given here.
Columns and labels:
Botrytis cinerea = experiment: Test A: preventive spray on tomato seedlings, Botrytis cinerea (gray mold), visual disease rating; format: in vivo; conditions: for pest or weed control at 40 µg/mL, 160 g/ha: 96 h
Procedure, shortened: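 Tomato seedlings sprayed to run-off with 40 ppm or 10 ppm suspensions (160 or 40 g ai/ha) in acetone/water with 250 ppm surfactant. Inoculated with B. cinerea spores next day, held saturated at 20 °C for 48 h, then 27 °C for 2 days. Visual rating, 0–100% disease control relative to controls.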

[1] = system: Stagonospora nodorum (also known as Septoria nodorum); experiment: Test B: preventive spray on wheat seedlings, Stagonospora nodorum (wheat glume blotch), visual disease rating; format: in vivo
Procedure, shortened: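 Compounds in acetone/water (50/50) with 250 ppm Trem 014 surfactant were sprayed to run-off at 40 ppm (160 g ai/ha) or 10 ppm (40 g ai/ha). Seedlings were inoculated with S. nodorum spores the next day, then held 48 h saturated at 20 °C and 6 days in a growth chamber at 20 °C. Visual rating as % disease control vs untreated.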

Septoria tritici = experiment: Test C: preventive spray on wheat seedlings, Septoria tritici (wheat leaf blotch), visual disease rating; format: in vivo
Procedure, shortened: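 Wheat seedlings sprayed to run-off at 40 ppm or 10 ppm (160 or 40 g ai/ha) in acetone/water with surfactant, inoculated with Septoria tritici spores next day. Held 48 h saturated at 24 °C, then 21 days at 20 °C. Visual rating scored as % disease control relative to controls.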

[2] = system: Puccinia recondite f. sp. tritici; experiment: Test D: preventive spray on wheat seedlings, Puccinia recondite f. sp. tritici (wheat leaf rust), visual disease rating; format: in vivo
Procedure, shortened: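 Wheat seedlings sprayed to run-off with 40 ppm (160 g ai/ha) or 10 ppm (40 g ai/ha) suspension in acetone/water with 250 ppm surfactant, inoculated next day with leaf rust spores. After 24 h saturated at 20 °C then 6 days at 20 °C, visual rating of disease control (0–100) relative to controls.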

[3] = system: Erysiphe graminis f. sp. tritici; experiment: Test E: preventive spray on wheat seedlings, Erysiphe graminis f. sp. tritici (wheat powdery mildew), visual disease rating; format: in vivo
Procedure, shortened: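 Wheat seedlings were sprayed to run-off with 40 or 10 ppm suspension (160 or 40 g ai/ha) and dusted with spores the next day. They were then kept 8 days at 20 °C. Disease was rated visually as % control relative to untreated controls (0–100).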

[4] = 100 = 100% disease control, 0 = no control relative to controls, unmarked values
[5] = 100 = 100% disease control, 0 = no control, unmarked values
[6] = values marked with asterisk (*), meaning not given

Compound | pest or weed control at 40 µg/mL, 160 g/ha (Botrytis cinerea; [4]) | melting point | Test A disease control rating (Botrytis cinerea; [4]) | Test B disease control rating [1, 5] | Test C disease control rating (Septoria tritici; [5]) | Test D disease control rating [2, 5] | Test E disease control rating [3, 5] | Test A disease control rating (Botrytis cinerea; [6]) | Test B disease control rating [1, 6] | Test C disease control rating (Septoria tritici; [6]) | Test D disease control rating [2, 6] | Test E disease control rating [3, 6]
O=C(Nc1ccccc1-c1cnc(-n2ccc(C(F)(F)F)n2)cn1)c1ccccc1C(F)(F)F [Compound 1, 2-(trifluoromethyl)-N-[2-[5-[3-(trifluoromethyl)-1H-pyrazol-1-yl]-2-pyrazinyl]phenyl]benzamide] | 27% | 180 to 182 °C |  |  |  |  |  |  |  |  |  | 
Cn1cc(C(=O)Nc2ccccc2-c2cnc(-n3ccc(C(F)(F)F)n3)cn2)c(C(F)F)n1 [Compound 2, 3-(difluoromethyl)-1-methyl-N-[2-[5-[3-(trifluoromethyl)-1H-pyrazol-1-yl]-2-pyrazinyl]phenyl]-1H-pyrazole-4-carboxamide] | 15% | 207 to 209 °C |  |  |  |  |  |  |  |  |  | 
Cn1cc(C(=O)Nc2ccccc2-c2ccc(-n3ccc(C(F)(F)F)n3)nc2)c(C(F)F)n1 [Compound 51, 3-(difluoromethyl)-N-[2-[6-[3-(trifluoromethyl)-1H-pyrazol-1-yl]-3-pyridinyl]phenyl]-1-methyl-1H-pyrazole-4-carboxamide] | 97% | 157 to 159 °C |  |  |  |  |  |  |  |  |  | 
Cn1cc(C(=O)Nc2ccccc2-c2ccc(-n3ccc(C(F)(F)F)n3)nn2)c(C(F)F)n1 [Compound 54, 3-(difluoromethyl)-1-methyl-N-[2-[6-[3-(trifluoromethyl)-1H-pyrazol-1-yl]-3-pyridazinyl]phenyl]-1H-pyrazole-4-carboxamide] | 0% | 248 to 250 °C |  |  |  |  |  |  |  |  |  | 
O=C(Nc1ccccc1-c1cnc(-n2ccc(-c3ccccc3)n2)c(F)c1)c1ncccc1C(F)(F)F [compound 72] |  |  | 92% | 0% | 100% | 97% | 91% |  |  |  |  | 
Cn1cc(C(=O)Nc2ccccc2-c2cnc(-n3ccc(Cl)n3)c(F)c2)c(C(F)F)n1 [compound 73] |  |  | 96% | 100% | 100% | 100% | 100% |  |  |  |  | 
Cn1cc(C(=O)Nc2ccccc2-c2cnc(-n3cc(Cl)cn3)c(F)c2)c(C(F)F)n1 [compound 74] |  |  | 96% | 0% | 100% | 100% | 100% |  |  |  |  | 
Cn1cc(C(=O)Nc2ccccc2-c2cnc(-n3ccc(Br)n3)c(F)c2)c(C(F)F)n1 [compound 75] |  |  | 99% | 98% | 100% | 100% | 100% |  |  |  |  | 
Cn1cc(C(=O)Nc2ccccc2-c2cnc(-n3ccc(-c4ccccc4)n3)c(F)c2)c(C(F)F)n1 [compound 76] |  |  | 99% | 0% | 100% | 100% | 99% |  |  |  |  | 
O=C(Nc1ccccc1-c1cnc(-n2ccc(Cl)n2)c(F)c1)c1ccccc1C(F)(F)F [compound 77] |  |  | 74% | 0% | 100% | 100% | 98% |  |  |  |  | 
O=C(Nc1ccccc1-c1cnc(-n2cc(Cl)cn2)c(F)c1)c1ccccc1C(F)(F)F [compound 78] |  |  | 28% | 0% | 100% | 100% | 97% |  |  |  |  | 
O=C(Nc1ccccc1-c1cnc(-n2ccc(Br)n2)c(F)c1)c1ccccc1C(F)(F)F [compound 79] |  |  | 25% | 0% | 100% | 100% | 99% |  |  |  |  | 
O=C(Nc1ccccc1-c1cnc(-n2ccc(-c3ccccc3)n2)c(F)c1)c1ccccc1C(F)(F)F [compound 80] |  |  | 0% | 0% | 100% | 88% | 0% |  |  |  |  | 
O=C(Nc1ccccc1-c1ccc(-n2nc(C(F)(F)F)cc2O)nc1)c1ncccc1C(F)(F)F [compound 82] |  |  |  |  |  |  |  | 31* % | 97* % | 48* % | 97* % | 0* %
N#Cc1cnn(-c2ncc(-c3ccccc3NC(=O)c3ncccc3C(F)(F)F)cc2F)c1 [compound 85] |  |  | 70% | 0% | 45% | 99% | 0% |  |  |  |  | 
N#Cc1ccn(-c2ncc(-c3ccccc3NC(=O)c3ncccc3C(F)(F)F)cc2F)n1 [compound 86] |  |  | 89% | 0% | 98% | 100% | 79% |  |  |  |  | 
Cn1cc(C(=O)Nc2ccccc2-c2ccc(-n3ccc(-c4cccc(F)c4)n3)nc2)c(C(F)F)n1 [compound 87] |  |  | 99% | 0% | 97% | 100% | 64% |  |  |  |  | 
COc1ccc(-c2ccn(-c3ccc(-c4ccccc4NC(=O)c4cn(C)nc4C(F)F)cn3)n2)cc1 [compound 88] |  |  | 100% | 0% | 51% | 100% | 93% |  |  |  |  | 
COc1ccccc1-c1ccn(-c2ccc(-c3ccccc3NC(=O)c3cn(C)nc3C(F)F)cn2)n1 [compound 98] |  |  | 67% | 0% | 75% | 100% | 48% |  |  |  |  | 
Cn1cc(C(=O)Nc2ccccc2-c2ccc(-n3ccc(-c4ccc(F)cc4)n3)nc2)c(C(F)F)n1 [compound 99] |  |  | 89% | 0% | 90% | 100% | 91% |  |  |  |  | 
COc1ccc(-c2ccn(-c3ccc(-c4ccccc4NC(=O)c4cn(C)nc4C(F)F)cn3)n2)c(OC)c1 [compound 100] |  |  | 58% | 60% | 87% | 100% | 69% |  |  |  |  | 
Cn1cc(C(=O)Nc2ccccc2-c2ccc(-n3ccc(-c4ccc(F)cc4F)n3)nc2)c(C(F)F)n1 [compound 101] |  |  | 71% | 60% | 94% | 100% | 92% |  |  |  |  | 
N-[2-[5-fluoro-6-[3-(trifluoromethyl)-1H-pyrazol-1-yl]-3-pyridinyl]phenyl]-3-(trifluoromethyl)-2-pyridinecarboxamide [Compound 50] |  |  | 99% | 100% | 100% | 100% | 100% |  |  |  |  | 

— patent publication US9730447B2, “Fungicidal amides” (E I DU PONT DE NEMOURS AND COMPANY, priority 2013, dated 2017)
